Earlier results in patent publication US20070265345A1, “Novel Biphenyl Compounds And Their Use” (SMITHKLINE BEECHAM CORPORATION, priority 2004, published 2007).

Tested on: A549 cells
For O=c1[nH]cc(F)c(=O)[nH]1 [5-fluorouracil], the GI50 is listed as 1000 nM.
In the case of COc1cccc2c1C(=O)c1c(O)c3c(c(O)c1C2=O)C[C@@](O)(C(=O)CO)C[C@@H]3O[C@H]1C[C@H](N)[C@H](O)[C@H](C)O1 [doxorubicin], the GI50 is listed as 63 nM.
In the case of NC(=O)NO [hydroxyurea], the GI50 is listed as 500000 nM.
In the case of CC(=O)O[C@H]1C(=O)[C@@]2(C)[C@H]([C@H](OC(=O)c3ccccc3)[C@]3(O)C[C@H](OC(=O)[C@H](O)[C@@H](NC(=O)c4ccccc4)c4ccccc4)C(C)=C1C3(C)C)[C@]1(OC(C)=O)CO[C@@H]1C[C@@H]2O [paclitaxel], the GI50 is listed as 4 nM.
